The record followed here is patent US20120220603A1, “SUBSTITUTED HETEROCYCLIC DERIVATIVES FOR THE TREATMENT OF PAIN AND EPILEPSY” (ZALICUS PHARMACEUTICALS LTD., priority 2009, published 2012).

Broadly, the Tmax is the time at which the peak concentration occurs.

The target of data set [1] is T1, CaV3.2 T-type Ca2+ channels expressed in HEK cells (Homo sapiens, UniProt O95180).
T1 construct: expressed in transfected cells; host or cells: HEK cells
The data set is described as follows: CaV3.2 voltage-clamp electrophysiological assay (fast and slow inactivation). The class given is cell-based. An excerpt:
Prior to recording currents from CaV3.2 T-type Ca^2+ channels expressed in HEK cells, the culture media was replaced with extracellular solution (ECS) containing (in mM): 142 CsCl, 10 D-glucose, 2 CaCl2, 1 MgCl2, 10 HEPES, pH adjusted to 7.4 with CsOH. Borosilicate glass patch pipettes, pulled on a P-97 micropipette puller (Sutter Instruments, Novato, Calif.) with typical resistances of 2-4 MW, were backfilled with intracellular solution containing (in mM): 126.5 Cs-methanesulphonate, 2 MgCl2, 10 HEPES, 11 EGTA, 2 Na-ATP, pH adjusted to 7.3 CsOH. […] were recorded in the whole-cell configuration at room temperature (˜21° C.) using an Axopatch 200B (Molecular Devices, Sunnyvale, Calif.) patch-clamp amplifier. Recordings were low-pass filtered at 1 kHz (−3 dB 4-pole Bessel filter), digitized at 2 kHz with a Digidata 1322A interface (Molecular Devices), and acquired using pClamp 9.2 (Molecular Devices). No leak subtraction was used. Test compounds, prepared as 30 mM stock solutions in DMSO and diluted in extracellular buffer, were applied through a gravity driven multi-barrelled array of capillaries (24 gauge) connected to reservoirs controlled by solenoid valves. The effects of compounds on CaV3.2 slow and fast inactivation were evaluated using four different voltage protocols. The voltage dependence of fast and slow channel inactivation was examined using a two pulse protocol. Data were analyzed and fitted using OriginPro v.7.5 (OriginLab, Northampton, Mass.) software.

The test system of data set [2] is Rat SNL tactile allodynia. Description: L5/L6 spinal nerve ligation (SNL) Chung pain model, tactile allodynia (von Frey). The class given is in vivo. The source says:
The Spinal Nerve Ligation is an animal model representing peripheral nerve injury generating a neuropathic pain syndrome. In this model experimental animals develop the clinical symptoms of tactile allodynia and hyperalgesia. L5/L6 Spinal nerve ligation (SNL) injury was induced using the procedure of Kim and Chung (Kim et al., Pain 50:355-363 (1992)) in male Sprague-Dawley rats (Harlan; Indianapolis, Ind.) weighing 200 to 250 grams.
Anaesthesia was induced with 2% isofluorane in O2 at 2 L/min and maintained with 0.5% isofluorane in O2. Rats were then shaved and aseptically prepared for surgeries. A 2 cm paraspinal incision was made at the level of L4-S2. L4/L5 was exposed by removing the transverse process above the nerves with a small rongeur. The L5 spinal nerve is the larger of the two visible nerves below the transverse process and lies closest to the spine. The L6 spinal nerve is located beneath the corner of the slope bone. A home-made glass Chung rod was used to hook L5 or L6 and a pre-made slip knot of 4.0 silk suture was placed on the tip of the rod just above the nerve and pulled underneath to allow for the tight ligation. The L5 and L6 spinal nerves were tightly ligated distal to the dorsal root ganglion. The incision was closed, and the animals were allowed to recover for 5 days.
Sham control rats underwent the same operation and handling as the experimental animals, but without SNL.
Prior to initiating drug delivery, baseline behavioural testing data is obtained. At selected times after infusion of the Test or Control Article behavioural data can then be collected again.
The assessment of tactile allodynia consisted of measuring the withdrawal threshold of the paw ipsilateral to the site of nerve injury in response to probing with a series of calibrated von Frey filaments (innocuous stimuli). Animals were acclimated to the suspended wire-mesh cages for 30 min before testing. Each von Frey filament was applied perpendicularly to the plantar surface of the ligated paw of rats for 5 sec. A positive response was indicated by a sharp withdrawal of the paw. For rats, the first testing filament is 4.31. Measurements were taken before and after administration of test articles. […] The protocol was repeated until three changes in behaviour were determined (“up and down” method) (Chaplan et al., J. Neurosci. Methods 53:55-63 (1994)). The 50% paw withdrawal threshold was determined as (10^[Xf+kδ])/10,000, where Xf=the value of the last von Frey filament employed, k=Dixon value for the positive/negative pattern, and S=the logarithmic difference between stimuli. The cut-off values for rats were no less than 0.2 g and no higher than 15 g (5.18 filament); for mice no less than 0.03 g and no higher than 2.34 g (4.56 filament). A significant drop of the paw withdrawal threshold compared to the pre-treatment baseline is considered tactile allodynia. […]

A short description of data set [3]: Rat Early Pharmacokinetic (EPK) study. It counts as in vivo. The settings on record: PO, 30 mg/kg, formulation 10% DMSO/90% CMC; for Tmax: male, Sprague-Dawley, blood. Here is the method: Male Sprague-Dawley rats were dosed via oral (PO) gavage in the detailed formulation. Blood samples were collected from the animals at 6 timepoints out to 4 hours post-dose. Pharmacokinetic analysis was performed on the LC-MS/MS measured concentrations for each timepoint of each compound.

In data set [4] the target is T2, NaV1.7 channels expressed in HEK cells (Homo sapiens, UniProt Q15858).
T2 construct: expressed in transfected cells; host or cells: HEK cells
T2 sequence (Q15858 whole entry): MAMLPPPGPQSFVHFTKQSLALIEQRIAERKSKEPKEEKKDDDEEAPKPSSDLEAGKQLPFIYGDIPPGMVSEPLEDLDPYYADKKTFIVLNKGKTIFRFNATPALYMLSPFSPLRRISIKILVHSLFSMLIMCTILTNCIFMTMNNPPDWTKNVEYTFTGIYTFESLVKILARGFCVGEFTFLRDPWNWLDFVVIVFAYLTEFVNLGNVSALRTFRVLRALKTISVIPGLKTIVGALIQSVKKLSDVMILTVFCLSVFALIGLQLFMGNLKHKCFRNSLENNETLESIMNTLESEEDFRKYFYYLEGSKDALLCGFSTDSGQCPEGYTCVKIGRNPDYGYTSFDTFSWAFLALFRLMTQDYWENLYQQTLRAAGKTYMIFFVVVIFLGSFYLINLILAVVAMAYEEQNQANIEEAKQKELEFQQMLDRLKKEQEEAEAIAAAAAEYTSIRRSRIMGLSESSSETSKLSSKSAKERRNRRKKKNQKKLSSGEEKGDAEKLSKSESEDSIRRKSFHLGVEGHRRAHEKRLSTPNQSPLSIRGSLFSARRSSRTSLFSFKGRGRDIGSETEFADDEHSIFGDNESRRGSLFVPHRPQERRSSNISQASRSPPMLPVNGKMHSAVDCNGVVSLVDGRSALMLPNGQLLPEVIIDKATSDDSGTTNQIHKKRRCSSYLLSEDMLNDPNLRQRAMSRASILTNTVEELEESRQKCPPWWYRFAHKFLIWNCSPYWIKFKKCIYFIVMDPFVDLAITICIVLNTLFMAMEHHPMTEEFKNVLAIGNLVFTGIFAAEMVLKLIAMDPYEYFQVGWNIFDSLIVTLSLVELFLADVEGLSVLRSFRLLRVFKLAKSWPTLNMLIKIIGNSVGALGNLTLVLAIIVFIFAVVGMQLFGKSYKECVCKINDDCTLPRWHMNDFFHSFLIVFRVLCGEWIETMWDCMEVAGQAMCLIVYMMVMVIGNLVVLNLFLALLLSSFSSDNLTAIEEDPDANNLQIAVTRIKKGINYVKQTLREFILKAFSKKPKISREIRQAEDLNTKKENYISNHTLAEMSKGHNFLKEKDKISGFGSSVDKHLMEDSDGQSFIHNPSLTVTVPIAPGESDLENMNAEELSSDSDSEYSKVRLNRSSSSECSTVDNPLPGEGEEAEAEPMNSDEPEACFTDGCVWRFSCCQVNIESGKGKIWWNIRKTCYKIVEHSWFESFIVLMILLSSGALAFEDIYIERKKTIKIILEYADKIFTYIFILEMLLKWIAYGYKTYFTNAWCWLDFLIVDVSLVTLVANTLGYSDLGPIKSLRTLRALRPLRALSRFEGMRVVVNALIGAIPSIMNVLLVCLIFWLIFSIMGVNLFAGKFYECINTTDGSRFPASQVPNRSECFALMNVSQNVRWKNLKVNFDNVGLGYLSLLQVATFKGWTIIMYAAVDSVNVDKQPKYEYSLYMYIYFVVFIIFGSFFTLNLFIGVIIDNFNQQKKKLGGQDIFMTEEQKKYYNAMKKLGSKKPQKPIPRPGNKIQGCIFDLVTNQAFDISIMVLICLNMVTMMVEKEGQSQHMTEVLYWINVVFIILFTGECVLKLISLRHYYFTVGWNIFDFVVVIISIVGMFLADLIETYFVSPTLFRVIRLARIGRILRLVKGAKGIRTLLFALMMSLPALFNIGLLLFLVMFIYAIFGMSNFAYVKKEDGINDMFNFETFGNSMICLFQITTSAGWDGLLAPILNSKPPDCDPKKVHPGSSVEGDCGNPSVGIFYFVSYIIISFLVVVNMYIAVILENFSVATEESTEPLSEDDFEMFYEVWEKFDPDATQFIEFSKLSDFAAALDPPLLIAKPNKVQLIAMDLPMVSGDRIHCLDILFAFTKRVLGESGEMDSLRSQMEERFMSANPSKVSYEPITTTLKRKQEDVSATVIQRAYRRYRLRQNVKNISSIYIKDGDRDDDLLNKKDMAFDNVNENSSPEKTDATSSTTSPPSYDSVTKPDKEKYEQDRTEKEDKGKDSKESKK
Description: NaV1.7 voltage-clamp electrophysiological assay (enhancement of slow inactivation). The class given is cell-based. Here is the method:
To examine the effects of compounds on enhancement of slow inactivation of NaV1.7 and NaV1.8 channels expressed in HEK cells the culture media was replaced with an extracellular solution containing (in mM): 137 NaCl, 4 KCl, 1.8 CaCl2, 1 MgCl2, 10 HEPES, 10 glucose, pH adjusted to 7.4 with NaOH. The intracellular solution contained (in mM): 130 KCl, 1 MgCl2, 5 EGTA, 10 HEPES, 5 K2ATP, adjusted to pH 7.3 with KOH. Whole-cell recordings, preparation and application of test compounds were performed in a similar manner to the CaV3.2 electrophysiological assays. Voltage protocols were applied to quantify the effects of test compounds to enhance slow inactivation for NaV1.7 and NaV1.8.

The mark [5] stands for this setting: voltage-dependence of half inactivation, HEK cells, whole-cell.

T1 sequence (O95180 whole entry): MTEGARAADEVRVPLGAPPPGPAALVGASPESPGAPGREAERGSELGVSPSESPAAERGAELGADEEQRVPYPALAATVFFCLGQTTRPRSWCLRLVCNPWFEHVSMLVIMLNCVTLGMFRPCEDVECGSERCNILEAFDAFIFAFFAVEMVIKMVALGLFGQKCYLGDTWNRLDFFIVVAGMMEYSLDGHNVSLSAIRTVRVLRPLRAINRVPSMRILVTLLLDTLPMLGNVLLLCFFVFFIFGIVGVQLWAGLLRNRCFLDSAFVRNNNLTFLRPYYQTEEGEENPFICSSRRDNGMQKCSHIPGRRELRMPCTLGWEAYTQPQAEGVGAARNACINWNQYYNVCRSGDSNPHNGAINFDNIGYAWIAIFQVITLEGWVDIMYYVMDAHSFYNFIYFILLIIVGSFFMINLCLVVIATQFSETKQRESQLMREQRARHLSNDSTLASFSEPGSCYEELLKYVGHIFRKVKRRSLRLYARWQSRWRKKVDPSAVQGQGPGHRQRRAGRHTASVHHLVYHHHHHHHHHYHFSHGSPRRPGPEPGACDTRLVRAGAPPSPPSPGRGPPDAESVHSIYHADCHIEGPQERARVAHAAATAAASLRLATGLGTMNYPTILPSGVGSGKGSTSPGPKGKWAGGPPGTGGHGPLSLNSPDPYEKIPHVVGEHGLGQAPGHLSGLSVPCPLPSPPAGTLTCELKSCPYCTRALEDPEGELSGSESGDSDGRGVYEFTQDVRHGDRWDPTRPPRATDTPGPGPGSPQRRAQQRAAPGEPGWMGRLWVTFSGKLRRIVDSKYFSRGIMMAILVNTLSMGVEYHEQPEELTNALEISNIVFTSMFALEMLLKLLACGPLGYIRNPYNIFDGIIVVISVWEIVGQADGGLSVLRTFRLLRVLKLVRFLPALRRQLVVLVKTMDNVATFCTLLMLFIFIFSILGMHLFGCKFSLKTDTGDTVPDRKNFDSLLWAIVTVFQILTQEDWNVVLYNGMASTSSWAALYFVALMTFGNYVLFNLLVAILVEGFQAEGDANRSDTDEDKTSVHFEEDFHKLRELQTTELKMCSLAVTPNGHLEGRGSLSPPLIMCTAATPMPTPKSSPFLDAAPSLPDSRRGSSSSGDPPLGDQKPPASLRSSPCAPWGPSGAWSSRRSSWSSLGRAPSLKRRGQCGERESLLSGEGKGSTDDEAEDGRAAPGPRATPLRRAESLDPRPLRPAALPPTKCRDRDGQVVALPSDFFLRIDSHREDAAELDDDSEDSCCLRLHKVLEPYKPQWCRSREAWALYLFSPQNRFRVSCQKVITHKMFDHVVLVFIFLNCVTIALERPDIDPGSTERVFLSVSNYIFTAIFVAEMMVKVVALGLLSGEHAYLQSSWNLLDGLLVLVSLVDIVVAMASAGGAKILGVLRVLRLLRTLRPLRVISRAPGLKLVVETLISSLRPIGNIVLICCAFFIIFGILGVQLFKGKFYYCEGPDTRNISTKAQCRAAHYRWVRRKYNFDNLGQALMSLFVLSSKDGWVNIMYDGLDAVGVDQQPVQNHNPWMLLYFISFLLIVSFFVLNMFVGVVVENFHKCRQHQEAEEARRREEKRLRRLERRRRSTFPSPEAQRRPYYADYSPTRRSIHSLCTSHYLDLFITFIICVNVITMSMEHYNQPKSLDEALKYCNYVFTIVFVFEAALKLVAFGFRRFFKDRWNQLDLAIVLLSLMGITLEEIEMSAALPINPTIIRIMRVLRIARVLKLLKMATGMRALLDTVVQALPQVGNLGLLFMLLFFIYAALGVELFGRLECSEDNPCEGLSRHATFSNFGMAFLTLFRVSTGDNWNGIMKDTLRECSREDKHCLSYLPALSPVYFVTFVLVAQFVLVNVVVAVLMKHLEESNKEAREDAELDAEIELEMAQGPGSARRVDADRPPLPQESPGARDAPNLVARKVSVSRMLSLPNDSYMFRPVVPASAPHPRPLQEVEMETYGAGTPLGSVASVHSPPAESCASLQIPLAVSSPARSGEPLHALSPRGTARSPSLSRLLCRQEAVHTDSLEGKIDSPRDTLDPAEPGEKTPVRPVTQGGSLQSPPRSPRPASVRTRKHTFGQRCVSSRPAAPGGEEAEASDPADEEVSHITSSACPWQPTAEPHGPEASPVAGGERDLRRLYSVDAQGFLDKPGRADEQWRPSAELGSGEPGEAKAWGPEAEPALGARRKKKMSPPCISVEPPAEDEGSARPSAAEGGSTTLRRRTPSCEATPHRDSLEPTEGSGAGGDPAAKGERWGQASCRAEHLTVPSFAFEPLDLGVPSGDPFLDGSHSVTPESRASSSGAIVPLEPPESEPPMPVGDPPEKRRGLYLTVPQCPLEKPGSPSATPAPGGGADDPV

With `O=C(CN1CCNCC1=O)Nc1cc(F)c(F)cc1F` [Compound 2, 2-(2-oxopiperazin-1-yl)-N-(2,4,5-trifluorophenyl)acetamide], the “Fraction of current recovered at 5.1 s interval” value in data set [1] (5.1 s interval) came out at 0.98. In addition, the “Fraction current remaining at −40 mV” value in data set [1] (at −40 mV) is 0.58. In addition, in data set [1] (setting [5]), the V1/2 fast inactivation is on record as −65 mV and the V1/2 slow inactivation was −80 mV.

Consider `CC1(C)CN(CC(=O)Nc2cc(C(F)(F)F)cc(C(F)(F)F)c2)C(=O)CN1` [Compound 13, N-(3,5-bis(trifluoromethyl)phenyl)-2-(5,5-dimethyl-2-oxopiperazin-1-yl)acetamide], for which the “Rat SNL Tactile Allodynia (% Antiallodynia)” value in data set [2] (1 hour) is reported as 16%. The “Rat SNL Tactile Allodynia (% Antiallodynia)” value in data set [2] (2 hours) came out at 8%. In addition, the “Rat SNL Tactile Allodynia (% Antiallodynia)” value in data set [2] (4 hours) amounted to 5%. For the same compound, the “Anti-allodynia in rat SNL tactile allodynia (in words)” value in data set [2] (at 60 minutes compared to baseline and post-SNL) is reported as “significant anti-allodynia”. In addition, in data set [3], the “Dose Normalized AUC” value is 458 nM·h, the “Dose Normalized Cmax” value is given as 172 nM and the Tmax came to 40.2 min.

For the compound `O=C1CNCCN1C(=O)CNc1cc(F)cc(F)c1` [Compound 3, 1-(2-(3,5-difluorophenylamino)acetyl)piperazin-2-one], the “Rat SNL Tactile Allodynia (% Antiallodynia)” value amounted to 1% in data set [2] (1 hour) and 4% in data set [2] (4 hours).

In the case of `O=C1CN(C(=O)CNc2cc(F)cc(C(F)(F)F)c2)CCN1` [Compound 11, 4-(2-(3-fluoro-5-(trifluoromethyl)phenylamino)acetyl)piperazin-2-one], the “Rat SNL Tactile Allodynia (% Antiallodynia)” value in data set [2] (1 hour) was 9%; in data set [2] (2 hours) it was 4%; in data set [2] (4 hours), 1%.

Regarding `O=C1CN(C(=O)CNc2cc(C(F)(F)F)cc(C(F)(F)F)c2)CCN1` [Compound 10, 4-(2-(3,5-bis(trifluoromethyl)phenylamino)acetyl)piperazin-2-one], the Fraction current remaining in data set [4] (concentration tested 10 μM) is recorded as 0.91; in data set [4] (concentration tested 100 μM), 0.74. Besides, the “Rat SNL Tactile Allodynia (% Antiallodynia)” value in data set [2] (1 hour) is recorded as 10%; in data set [2] (2 hours), 13%; in data set [2] (4 hours), 15%. Also, the “Dose Normalized AUC” value in data set [3] is 1,192 nM*h. Further, in data set [3], the “Dose Normalized Cmax” value was 355 nM. In data set [3], the Tmax turned out to be 72 min.

With `O=C(NCCN1CCNCC1=O)c1cc(F)cc(C(F)(F)F)c1` [Compound 23, 3-fluoro-N-(2-(2-oxopiperazin-1-yl)ethyl)-5-(trifluoromethyl)benzamide], the Fraction current remaining in data set [4] (concentration tested 30 μM) was determined as 0.91.

Consider `CC1(C)C(=O)NCCN1C(=O)CNc1cc(C(F)(F)F)cc(C(F)(F)F)c1` [Compound 12, 4-(2-(3,5-bis(trifluoromethyl)phenylamino)acetyl)-3,3-dimethylpiperazin-2-one], for which the “Rat SNL Tactile Allodynia (% Antiallodynia)” value is on record as 9% in data set [2] (1 hour), 11% in data set [2] (2 hours) and 42% in data set [2] (4 hours).

In the case of `O=C(CN1CCNCC1=O)NCc1cc(C(F)(F)F)cc(C(F)(F)F)c1` [Compound 20, N-(3,5-bis(trifluoromethyl)benzyl)-2-(2-oxopiperazin-1-yl)acetamide], the Fraction current remaining in data set [4] (concentration tested 30 μM) was determined as 0.87.
